Each compound was assayed against T1, SCD1 (Homo sapiens, UniProt O00767) (assay: Growth inhibition of humanized yeast expressing SCD1 as sole desaturase). Conditions: humanized yeast expressing SCD1.
T1 construct: host or cells: S. cerevisiae ole1Δ strain, plasmid pRS316 with TDH3 promoter and CYC1 terminator
T1 sequence (O00767 1-359): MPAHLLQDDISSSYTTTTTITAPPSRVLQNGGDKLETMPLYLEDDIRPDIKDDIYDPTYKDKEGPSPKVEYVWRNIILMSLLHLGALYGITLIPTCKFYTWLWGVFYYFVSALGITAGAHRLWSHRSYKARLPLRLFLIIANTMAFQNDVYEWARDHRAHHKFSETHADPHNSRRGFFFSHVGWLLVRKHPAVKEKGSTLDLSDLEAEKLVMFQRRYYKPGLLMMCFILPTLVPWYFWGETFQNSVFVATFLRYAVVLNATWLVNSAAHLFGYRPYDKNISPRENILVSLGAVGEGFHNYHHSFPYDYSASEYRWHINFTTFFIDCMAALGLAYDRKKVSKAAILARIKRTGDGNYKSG
Type: cell-based
Method: Strain ole1Δ (yeast ole1 deletion mutant) was constructed by deleting OLE1 with NAT-MX6 in BY4741, amplifying the deletion cassette from the genomic DNA of the resulting strain with primers flanking the ORF by 1000 bp upstream and downstream, transforming the resulting deletion cassette into W303 pdr1Δ pdr3Δ, and plating transformants on YPD media containing G418 (200 μg/mL) and nourseothricin (100 μg/mL) with 0.01% TWEEN®-20 and 0.5 mM oleic and palmitoleic acids.
The coding sequence of yeast OLE1 was also cloned into this plasmid). These clones were then transformed into the ole1Δ strain and plated on CSM-Ura media (CSM lacking uracil) with 2% glucose (w/v) and independent colonies were isolated and amplified.
All compound profiling experiments were performed using the same basic protocol. Different genetic backgrounds (e.g., gene deletions) or conditions (e.g., addition of oleic and palmitoleic acid) were replaced as indicated below.
Yeast were cultured using standard techniques in complete synthetic media (CSM) and yeast nitrogen base supplemented with 2% (w/v) carbon source (glucose, raffinose, or galactose) to regulate the expression of the toxic disease protein. An initial starter culture was inoculated in 3 mL CSM-Glucose media and incubated overnight in a 30° C. shaker incubator (225 rpm). Saturated morning cultures were then diluted 1:20 in fresh CSM-Raffinose media and grown for 6 h to an OD600 (optical density) of ˜0.4-0.8 at 30° C. with shaking.
Compound administration was performed in two separate steps. First, 15 μL of CSM-Galactose (induces expression of toxic protein) was dispensed into clear 384 well assay plates using a MULTIDROP™ Combi reagent dispenser. […] The cultures described above were then diluted to a 2× concentration (0.03 and 0.08 for alpha-synuclein and ApoE, final OD600 of 0.015 and 0.04) in CSM-Galactose. For wild-type and Ole1/SCD1/SCD5 plasmid-containing strains, the 2× cell density was 0.02. […] For 96-well assays (FIGS. 1A and 1B), compound dilutions in DMSO were generated in 96 well plates and 1 μL was manually pipetted into 96 well clear bottom assay plates.
For experiments using a plasmid-borne copy of Ole1, SCD1, or SCD5 (FIGS. 3B, 6, and 7), media lacking uracil (SX-Ura, where X is glucose, raffinose, or galactose), was used for all steps of the compound profiling protocol to ensure its maintenance throughout the assay.
After yeast delivery, assay plates were incubated under humidified conditions at 30° C. for 24 to 40 h. ApoE4 rescue experiments were stopped at 24 h, aSyn experiments at 40 h, Ole1 at 24 h, and SCD1/SCD5 at 40 h. The growth of yeast was monitored by reading the OD600 of each well using a microplate reader (Perkin Elmer EnVision™).
For `Cc1ccc(-c2nc(C3CCN(C(=O)C4CC(=O)N(c5ccc(C)c(C)c5)C4)CC3)no2)cc1` (stereo not shown) [Compound 50], the IC50 was 41 µM.
`Cn1c(=O)n(C)c2cc(-c3noc(C4CCN(C(=O)[C@@H](CO)NC(=O)c5ccccc5)CC4)n3)ccc21` [Compound 214] was tested, and the IC50 was 41 µM.
In the case of `CC(C)n1ncc2cc(-c3noc(C4CCN(C(=O)CNC(=O)c5ccccc5)CC4)n3)ccc21` [Compound 228], the IC50 is reported as 41 µM.

Same assay, conditions: humanized yeast expressing human SCD1
In the case of `Cc1nn(C)c2cc(-c3noc(N4CCN(C(=O)[C@H]5CC(=O)N(c6ccccc6)C5)CC4)n3)cnc12` [Compound 246], the IC50 is reported as greater than 45 µM.
`N#Cc1ccc(-c2noc(C3CCN(C(=O)[C@H]4CC(=O)N(c5ccccc5)C4)CC3)n2)s1` [Compound 247] gave an IC50 greater than 45 µM.
Work on `O=C([C@H]1CC(=O)N(c2ccccc2)C1)N1CCC(c2nc(-c3ccc(Br)s3)no2)CC1` [Compound 248] yielded an IC50 greater than 45 µM.
`COc1cc(-c2noc(C3CCN(C(=O)CNC(=O)c4ccccc4)CC3)n2)ccc1OC1CC1` [Compound 249] gave an IC50 greater than 45 µM.
`Cc1nn(C)c2cc(-c3nsc(C4CCN(C(=O)CNC(=O)c5ccccc5)CC4)n3)ccc12` [Compound 250] gave an IC50 greater than 45 µM.
With `CNC(=O)c1ccc(-c2noc(C3CCN(C(=O)[C@H]4CC(=O)N(c5ccccc5)C4)CC3)n2)cn1` [Compound 252] the IC50 was greater than 45 µM.
`COc1cc(-c2noc(C3CCN(C(=O)CNC(=O)c4ccccc4)CC3)n2)ccc1OC(F)(F)F` [Compound 253] was tested, and the IC50 was greater than 45 µM.
`Cn1c(=O)n(C)c2cc(-c3noc(C4CCN(C(=O)[C@H]5CC(=O)N(c6ccccn6)C5)CC4)n3)ccc21` [Compound 256] was tested, and the IC50 was greater than 45 µM.
With `Cc1nn(C)c2cc(-c3noc(N4CCN(C(=O)c5ccccc5)CC4)n3)ccc12` [Compound 261] the IC50 was greater than 45 µM.
`Cc1nn(C)c2cc(-c3noc(N4CCN(C(=O)c5ccccc5Cl)CC4)n3)ccc12` [Compound 262] gave an IC50 greater than 45 µM.
Work on `Cc1nn(C)c2cc(-c3noc(C4CCN(C(=O)CC(C)(C)C)CC4)n3)ccc12` [Compound 263] yielded an IC50 greater than 45 µM.
With `Cc1nn(C)c2cc(-c3noc(C4CCN(C(=O)COc5ccccc5)CC4)n3)ccc12` [Compound 266] the IC50 was greater than 45 µM.
`Cc1nn(C)c2cc(-c3noc(C4CCN(C(=O)CNC(=O)c5ccc(Cl)cc5)CC4)n3)ccc12` [Compound 269] showed an IC50 greater than 45 µM.
In the case of `Cc1nn(C)c2cc(-c3noc(N4CCN(C(=O)c5cccc(F)c5)CC4)n3)ccc12` [Compound 270], the IC50 is reported as greater than 45 µM.
`Cc1nn(C)c2cc(-c3noc(C4CCN(C(=O)CNC(=O)c5ccccc5C(F)(F)F)CC4)n3)ccc12` [Compound 271] gave an IC50 greater than 45 µM.
For `Cc1nn(C)c2cc(-c3noc(C4CCN(C(=O)Oc5ccccc5)CC4)n3)ccc12` [Compound 272], the IC50 was greater than 45 µM.
`COC(=O)N1CCC(c2nc(-c3ccc4c(C)nn(C)c4c3)no2)CC1` [Compound 273] was tested, and the IC50 was greater than 45 µM.
With `COc1ccc(-c2noc(C3CCN(C(=O)CNC(=O)c4ccccc4)CC3)n2)cc1OC(C)C` [Compound 274] the IC50 was greater than 45 µM.
For `CC(C)n1cc2ccc(-c3noc(C4CCN(C(=O)OC(C)(C)C)CC4)n3)cc2n1` [Compound 277], the IC50 was greater than 45 µM.
`Cc1nn(C)c2cc(-c3noc(N4CCN(C(=O)c5cc(F)ccc5Cl)CC4)n3)ccc12` [Compound 278] gave an IC50 greater than 45 µM.
`Cc1nn(C)c2cc(-c3noc(C4CCN(S(=O)(=O)C(C)C)CC4)n3)ccc12` [Compound 279] gave an IC50 greater than 45 µM.
`Cc1nn(C)c2cc(-c3noc(C4CCN(C(=O)c5ccccc5)CC4)n3)ccc12` [Compound 280] was tested, and the IC50 was greater than 45 µM.
Compound `Cc1nn(C)c2cc(-c3noc(C4CCN(C(=O)NC(C)(C)C)CC4)n3)ccc12` [Compound 282] has an IC50 greater than 45 µM.
With `Cc1nn(C)c2cc(-c3noc(C4CCN(C(=O)c5cccc(F)c5)CC4)n3)ccc12` [Compound 284] the IC50 was greater than 45 µM.
Work on `CC(C)c1ccc(C(=O)N2CCC(c3nc(C(=O)Nc4cnn(C)c4)no3)CC2)cc1` [Compound 285] yielded an IC50 greater than 45 µM.
With `Cc1nn(C2CC2)c2cc(-c3noc(C4CCN(C(=O)CNC(=O)c5ccccc5)CC4)n3)ccc12` [Compound 286] the IC50 was greater than 45 µM.
Compound `CC(C)c1ccc(C(=O)N2CCC(c3nc(C(=O)Nc4ccnn4C)no3)CC2)cc1` [Compound 287] has an IC50 greater than 45 µM.
With `Cc1nn(C)c2cc(-c3noc(C4CCN(C(=O)c5ccccc5Cl)CC4)n3)ccc12` [Compound 288] the IC50 was greater than 45 µM.
In the case of `Cc1c2ccc(-c3noc(C4CCN(C(=O)CNC(=O)c5ccccc5)CC4)n3)cc2nn1C(C)C` [Compound 289], the IC50 is reported as greater than 45 µM.
With `Cc1nn(C)c2cc(-c3noc(C4CCN(C(=O)c5ccc(C(C)C)cc5)CC4)n3)ccc12` [Compound 290] the IC50 was greater than 45 µM.
`Cc1nn(C)c2cc(-c3noc(C4CCN(C(=O)c5ccc(Cl)cc5)CC4)n3)ccc12` [Compound 291] was tested, and the IC50 was greater than 45 µM.
`Cc1nn(C)c2cc(-c3noc(C4CCN(C(=O)c5cc(F)ccc5C(F)(F)F)CC4)n3)ccc12` [Compound 292] was tested, and the IC50 was greater than 45 µM.
`Cc1nn(C)c2cc(-c3noc(N4CCN(C(=O)c5ccccc5C(F)(F)F)CC4)n3)ccc12` [Compound 295] gave an IC50 greater than 45 µM.
For `Cc1nn(C)c2ccc(-c3noc(C4CCN(C(=O)c5ccc(C(C)C)cc5)CC4)n3)cc12` [Compound 297], the IC50 was greater than 45 µM.
Compound `CCn1nc(C)c2ccc(-c3noc(C4CCN(C(=O)OC(C)(C)C)CC4)n3)cc21` [Compound 301] has an IC50 greater than 45 µM.
`Cc1nn(C)c2cc(-c3noc(C4CCN(C(=O)CNC(=O)c5cc(F)ccc5C(F)(F)F)CC4)n3)ccc12` [Compound 304] gave an IC50 greater than 45 µM.
In the case of `CCc1nn(C)c2cc(-c3noc(C4CCN(C(=O)CNC(=O)c5ccccc5)CC4)n3)ccc12` [Compound 309], the IC50 is reported as greater than 45 µM.
For `CCN1C(=O)CN(C)c2cc(-c3noc(C4CCN(C(=O)CNC(=O)c5ccccc5)CC4)n3)ccc21` [Compound 310], the IC50 was greater than 45 µM.
Work on `Cc1nn(C)c2cc(-c3noc(C4CCN(C(=O)N5CCOCC5)CC4)n3)ccc12` [Compound 311] yielded an IC50 greater than 45 µM.
`Cc1nn(C)c2cc(-c3noc(C4CCN(C(=O)CNC(=O)c5ccc(C(F)(F)F)cc5)CC4)n3)ccc12` [Compound 317] was tested, and the IC50 was greater than 45 µM.
Work on `CCn1nc2cc(-c3noc(C4CCN(C(=O)CNC(=O)c5ccccc5)CC4)n3)ccc2c1C` [Compound 320] yielded an IC50 greater than 45 µM.
For `CCc1c2ccc(-c3noc(C4CCN(C(=O)CNC(=O)c5ccccc5)CC4)n3)cc2nn1C` [Compound 321], the IC50 was greater than 45 µM.
`Cc1nn(C)c2cc(-c3nc(C4CCN(C(=O)CNC(=O)c5ccccc5)CC4)no3)ccc12` [Compound 326] showed an IC50 greater than 45 µM.
`Cc1nn(C)c2cc(-c3noc(N4CCN(C(=O)N5CCCCC5)CC4)n3)ccc12` [Compound 327] gave an IC50 greater than 45 µM.
For `Cc1nn(C)c2cc(-c3noc(C4CCN(C(=O)CNC(=O)c5cc(Cl)ccc5C(F)(F)F)CC4)n3)ccc12` [Compound 328], the IC50 was greater than 45 µM.
`Cc1nn(C)c2cc(-c3noc(C4CCN(C(=O)N[C@@H]5C[C@@H]5c5ccccc5)CC4)n3)ccc12` [Compound 329] was tested, and the IC50 was greater than 45 µM.
`O=C(c1ccccc1)N1CCC(c2nc(N3CC4(COC4)C3)no2)CC1` [Compound 334] was tested, and the IC50 was greater than 45 µM.
For `O=C(c1ccccc1)N1CCC(c2nc(N3CC4(CCCO4)C3)no2)CC1` [Compound 335], the IC50 was greater than 45 µM.
`CC(C)c1ccc(C(=O)N2CCC(c3nc(N4CC5(CCCO5)C4)no3)CC2)cc1` [Compound 336] showed an IC50 greater than 45 µM.
For `CC(C)c1ccc(C(=O)N2CCC(c3nc(N4CC5(COC5)C4)no3)CC2)cc1` [Compound 337], the IC50 was greater than 45 µM.
For `Cc1nn(C(C)C)c2cc(-c3noc(C4CCN(C(=O)OC(C)(C)C)CC4)n3)ccc12` [Compound 343], the IC50 was greater than 45 µM.
`COC(=O)N1CCC(c2nc(-c3ccc4cnn(C(C)C)c4c3)no2)CC1` [Compound 355] showed an IC50 greater than 45 µM.
Work on `COC(=O)N1CCN(c2nc(-c3ccc4cnn(C(C)C)c4c3)no2)CC1` [Compound 356] yielded an IC50 greater than 45 µM.
Compound `CC(C)OC(=O)N1CCC(c2nc(-c3ccc4cnn(C(C)C)c4c3)no2)CC1` [Compound 357] has an IC50 greater than 45 µM.
For `CC(C)n1ncc2ccc(-c3noc(C4CCN(C(=O)COc5ccccc5)CC4)n3)cc21` [Compound 358], the IC50 was greater than 45 µM.
